Like-named read-outs stand apart in the source and are kept apart here.
Key:
[1] = system: lymphoma cell line OCI-LY3; test: Standard 6-day growth-death assay, OCI-LY3; type: cell-based; details: single agent or fixed 1:1 combination
Procedure: The majority cell lines were obtained from GSK BioCat group, American Type Culture Collection (ATCC), or the Deutsche Sammlung von Mikroorganismen and Zellbulturen (DSMZ). All cell lines were maintained in growth medium in T75 cm^2 flasks, incubated at 37° C. with 5% CO2 and split every 3 to 4 days. Growth media conditions and cell line information are detailed in Table 1. Cells were counted using the Vi-Cell Analyzer (Beckman Coulter ViCell) to obtain viable cell counts.
Optimal cell seeding density was determined for all cell lines by monitoring proliferation over a range of seeding densities in 384-well format and identifying the seeding density at which cells grew logarithmically throughout six days. 50 uL of cells per well were plated in 384-well plates at the optimal seeding density in preferred supplemented culture media. Three plates were prepared per cell line and incubated overnight at 37° C. in 5% CO2.
In these studies, lymphoma cell lines were treated with PRMT5 inhibitor, compound A and BCL-2 targeted inhibitor, ABT-199 single agent or in combination using a fixed 1:1 ratio of each inhibitor over a 20-point titration. For compound A single and fixed 1:1 ratio combination with ABT-199 cell proliferation assay, cells were treated in duplicate with a 20-point, two-fold dilution series of Compound A, ABT-199 (≥14 μM top dose) single or combo treatment, and ≤0.15% DMSO final concentration. Plates were incubated for six days at the conditions described above. Cell growth was measured using CellTiter-Glo (Promega) and luminescence signal was detected with a BioTek Synergy Neo microplate reader. A plate of untreated cells was read at the time of compound/biologic addition to determine the T0 value representing the starting number of cells. Data were fit with a four-parameter equation to generate a concentration response curve using Assay Client software.
Results were background corrected by subtraction of values from wells containing no cells, expressed as a percentage of the T0 value (value at time=0), and plotted against compound concentration. The T0 value was normalized to 100% and represents the number of cells present at the time of compound addition. The cellular response was determined for each compound using a 4- or 6-parameter curve fit of cell viability against concentration using Assay Client software. Growth IC50 (gIC50) values correspond to the concentration intersecting the mid-point of the growth window (between DMSO and T0 values). Growth IC100 (gIC100) values correspond to the concentration at which 100% growth inhibition is achieved, based on the growth window. The Ymin−T0 value, a measure of net population cell growth or death, is calculated by subtracting the T0 value (100%) from the Ymin value (%) that is determined from the fit of the concentration response curve. Death EC50 (dEC50) values correspond to the concentration at which 50% net cell death is observed.
Individual curves were quality checked for three criteria: outlier data points, cell growth (population doubling ≥1.5), and proper curve fitting. […] Individual curves were QC checked for outlier data points, cell growth (population doubling ≥1.5), and proper curve fitting. Obvious outlier data points were omitted only as needed to ensure proper curve fit.
For fixed ratio screening, combination activity was assessed by the fold change in gIC50 compared to the 2 single agent curves by dividing the compound ratio as necessary. Combinations showing >3-fold and >5-fold change from single agent are described as below: • Fold changes ≥5 are considered to represent strong synergy. • Fold changes between 3.0 and 4.9 are considered to represent weak synergy. • Fold changes <3 are considered to represent no synergy.

[2] = system: lymphoma cell line DB; test: Serial dilutions: fixed ABT-199 concentration with Compound A titration, six-day cell proliferation; type: cell-based; details: for EC50 / IC50: 144 h
Procedure: Serial dilutions were performed for the combination to ascertain the change in gIC50, gIC100 and dEC50 when the inhibitors are used together in a PRMT5 inhibitor cell proliferation. A first compound plate was prepared where PRMT5 inhibitor, Compound A, was prepared with a 20-point, two-fold dilution series of compound A from column 1 to 20. A second compound plate was prepared using the BCL-2 inhibitor ABT-199. ABT-199 was titrated in a 16-point 2-fold dilution series from row A to Q. A third plate was then created by added equal volume of 12 ul (ABT-199) from each well in the second plate into the corresponding well in the first plate. The third plate comprised rows from A to Q, each row comprising a fixed concentration of ABT-199. Columns 1-20 comprised varying concentrations of compound A from the 20-point dilution. Plates were incubated for six days at the conditions described above. Lymphoma cell line DB was treated with the solution in each of the wells. Cell growth was measured using CellTiter-Glo (Promega) and luminescence signal was detected with a BioTek Synergy Neo microplate reader. A plate of untreated cells was read at the time of compound/biologic addition to determine the T0 value representing the starting number of cells. Data were fit with a four-parameter equation to generate a concentration response curve for each row using Assay Client software. A comparison was made across each row in the third plate to determine, when keeping a fixed concentration of ABT-199, what concentration of compound A is needed to reach the gIC50, gIC100 or dEC50 respectively and the fold change compared to treating the same cell with compound A alone.
Tables 4a-c show the results of the above serial dilution experiments wherein ‘fold change’ is the difference between the amount of compound A needed to achieve gIC50, gIC100 or dEC50 respectively, compared to the amount of compound A needed to achieve gIC50, gIC100 or dEC50 respectively when compound A is given as a single agent.

EC50 ([2]; single agent, six days, read-out: dEC50): > 7.33 µM
IC50 ([2]; single agent, six days, read-out: gIC50): 631 nM
EC50 ([2]; with fixed ABT-199 1 nM, six days, read-out: Compound A required for dEC50): > 7.33 µM
IC50 ([2]; with fixed ABT-199 1 nM, six days, read-out: compound A required for gIC50): 445 nM
EC50 ([2]; with fixed ABT-199 2 nM, six days, read-out: Compound A required for dEC50): > 7.33 µM
IC50 ([2]; with fixed ABT-199 2 nM, six days, read-out: compound A required for gIC50): 509 nM
EC50 ([2]; with fixed ABT-199 4 nM, six days, read-out: Compound A required for dEC50): > 7.33 µM
IC50 ([2]; with fixed ABT-199 4 nM, six days, read-out: compound A required for gIC50): 514 nM
EC50 ([2]; with fixed ABT-199 7 nM, six days, read-out: Compound A required for dEC50): > 7.33 µM
IC50 ([2]; with fixed ABT-199 7 nM, six days, read-out: compound A required for gIC50): 449 nM
EC50 ([2]; with fixed ABT-199 14 nM, six days, read-out: Compound A required for dEC50): > 7.33 µM
IC50 ([2]; with fixed ABT-199 14 nM, six days, read-out: compound A required for gIC50): 387 nM
EC50 ([2]; with fixed ABT-199 29 nM, six days, read-out: Compound A required for dEC50): > 7.33 µM
IC50 ([2]; with fixed ABT-199 29 nM, six days, read-out: compound A required for gIC50): 351 nM
EC50 ([2]; with fixed ABT-199 57 nM, six days, read-out: Compound A required for dEC50): 5.37 µM
IC50 ([2]; with fixed ABT-199 57 nM, six days, read-out: compound A required for gIC50): 247 nM
EC50 ([2]; with fixed ABT-199 115 nM, six days, read-out: Compound A required for dEC50): 4.66 µM
IC50 ([2]; with fixed ABT-199 115 nM, six days, read-out: compound A required for gIC50): 209 nM
EC50 ([2]; with fixed ABT-199 229 nM, six days, read-out: Compound A required for dEC50): 4.66 µM
IC50 ([2]; with fixed ABT-199 229 nM, six days, read-out: compound A required for gIC50): 115 nM
EC50 ([2]; with fixed ABT-199 458 nM, six days, read-out: Compound A required for dEC50): 3.92 µM
IC50 ([2]; with fixed ABT-199 458 nM, six days, read-out: compound A required for gIC50): 119 nM
EC50 ([2]; with fixed ABT-199 916 nM, six days, read-out: Compound A required for dEC50): 2.53 µM
IC50 ([2]; with fixed ABT-199 916 nM, six days, read-out: compound A required for gIC50): 78 nM
EC50 ([2]; with fixed ABT-199 1833 nM, six days, read-out: Compound A required for dEC50): 2.39 µM
IC50 ([2]; with fixed ABT-199 1833 nM, six days, read-out: compound A required for gIC50): 74 nM
EC50 ([2]; with fixed ABT-199 3666 nM, six days, read-out: Compound A required for dEC50): 2.25 µM
IC50 ([2]; with fixed ABT-199 3666 nM, six days, read-out: compound A required for gIC50): 80 nM
EC50 ([2]; with fixed ABT-199 7331 nM, six days, read-out: Compound A required for dEC50): 2.29 µM
IC50 ([2]; with fixed ABT-199 7331 nM, six days, read-out: compound A required for gIC50): 15 nM
Compound: O=C(NC[C@H](O)CN1CCc2ccccc2C1)c1ccnc(NC2CCC2)c1 [Compound A]
EC50 ([1]; Homo sapiens, 144 h, average of n=2, read-out: dEC50): > 14.7 µM
IC50 ([1]; Homo sapiens, 144 h, average of n=2, read-out: gIC50): 1960 nM
Ymin-T0 ([1]; average of n=2): 488%
gIC100 ([1]; average of n=2): 14.663 µM
Fold change over compound A single agent gIC50 (631 nM, most potent of the two agents) ([2]; single agent): 1.0
Fold change over compound A single agent gIC100 (6489 nM, most potent of the two agents) ([2]; single agent): 1.0
gIC100 ([2]; single agent, six days): 6.489 µM
Fold change over compound A single agent gIC50 (631 nM, most potent of the two agents) ([2]; with fixed ABT-199 1 nM): 1.4
Fold change over compound A single agent gIC100 (6489 nM, most potent of the two agents) ([2]; with fixed ABT-199 1 nM): 0.9
compound A required for gIC100 ([2]; with fixed ABT-199 1 nM, six days): 7.331 µM
Fold change over compound A single agent gIC50 (631 nM, most potent of the two agents) ([2]; with fixed ABT-199 2 nM): 1.2
Fold change over compound A single agent gIC100 (6489 nM, most potent of the two agents) ([2]; with fixed ABT-199 2 nM): 0.9
compound A required for gIC100 ([2]; with fixed ABT-199 2 nM, six days): 7.331 µM

— patent publication US20210386738A1, “COMBINATION OF PRMT5 INHIBITORS AND BCL-2 INHIBITORS” (GLAXOSMITHKLINE INTELLECTUAL PROPERTY DEVELOPMENT LIMITED, priority 2018, published 2021)
